Common to all, as to test: Kinase selectivity, Z'-LYTE
Common to all, as to format: biochemical

The target in assay [1] is T1, JAK3 (Homo sapiens, UniProt P52333).
T1 construct: purchased Invitrogen (Life Technologies) SelectScreen Z'-LYTE
T1 sequence (P52333 1-1124): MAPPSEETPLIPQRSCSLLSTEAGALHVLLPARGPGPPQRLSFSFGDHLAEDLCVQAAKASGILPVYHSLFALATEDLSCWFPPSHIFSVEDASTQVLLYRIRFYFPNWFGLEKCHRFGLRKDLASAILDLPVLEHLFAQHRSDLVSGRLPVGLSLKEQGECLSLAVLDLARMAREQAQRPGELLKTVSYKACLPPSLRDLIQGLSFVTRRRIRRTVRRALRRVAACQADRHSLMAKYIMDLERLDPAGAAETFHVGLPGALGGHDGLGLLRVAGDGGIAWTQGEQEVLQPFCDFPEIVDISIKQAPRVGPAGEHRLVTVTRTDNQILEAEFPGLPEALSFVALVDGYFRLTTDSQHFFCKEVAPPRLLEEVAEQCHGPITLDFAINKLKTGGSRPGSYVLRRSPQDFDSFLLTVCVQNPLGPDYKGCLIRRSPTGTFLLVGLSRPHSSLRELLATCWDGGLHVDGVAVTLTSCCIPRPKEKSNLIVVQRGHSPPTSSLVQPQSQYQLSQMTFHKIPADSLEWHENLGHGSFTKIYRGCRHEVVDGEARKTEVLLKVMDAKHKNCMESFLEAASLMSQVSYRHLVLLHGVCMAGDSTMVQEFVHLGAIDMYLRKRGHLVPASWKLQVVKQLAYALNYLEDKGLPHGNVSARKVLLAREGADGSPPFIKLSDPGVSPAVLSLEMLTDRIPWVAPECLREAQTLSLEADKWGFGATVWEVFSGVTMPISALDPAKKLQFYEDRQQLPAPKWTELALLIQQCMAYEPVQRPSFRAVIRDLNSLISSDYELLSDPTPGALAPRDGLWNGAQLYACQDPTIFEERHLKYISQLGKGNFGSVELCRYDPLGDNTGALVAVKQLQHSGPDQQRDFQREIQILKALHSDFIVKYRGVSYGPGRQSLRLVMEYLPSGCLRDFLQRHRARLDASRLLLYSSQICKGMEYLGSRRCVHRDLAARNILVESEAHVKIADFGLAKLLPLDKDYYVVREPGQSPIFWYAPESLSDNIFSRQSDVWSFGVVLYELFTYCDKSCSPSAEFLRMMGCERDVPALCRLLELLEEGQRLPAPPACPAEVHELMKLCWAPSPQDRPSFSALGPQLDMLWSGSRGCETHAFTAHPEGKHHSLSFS
Here is the method: (§1) Kinase selectivity was assessed using a commercial service that employs a fluorescence-based, coupled-enzyme assay based on the differential sensitivity of phosphorylated and non-phosphorylated peptides to proteolytic cleavage (Invitrogen, Z'-LYTE®). This assay uses recombinant protein kinases and assay mixed optimized for each particular kinase (http://www.lifetechnologies.com/us/en/home/life-science/drug-discovery/target-and-lead-identification-and-validation /kinasebiology/kinase-activity-assays/z-lyte.html).

For assay [2], the target named is T2, PRKCE (PKC epsilon) (Homo sapiens, UniProt Q02156).
T2 construct: purchased Invitrogen (Life Technologies) SelectScreen Z'-LYTE
T2 sequence (Q02156 1-737): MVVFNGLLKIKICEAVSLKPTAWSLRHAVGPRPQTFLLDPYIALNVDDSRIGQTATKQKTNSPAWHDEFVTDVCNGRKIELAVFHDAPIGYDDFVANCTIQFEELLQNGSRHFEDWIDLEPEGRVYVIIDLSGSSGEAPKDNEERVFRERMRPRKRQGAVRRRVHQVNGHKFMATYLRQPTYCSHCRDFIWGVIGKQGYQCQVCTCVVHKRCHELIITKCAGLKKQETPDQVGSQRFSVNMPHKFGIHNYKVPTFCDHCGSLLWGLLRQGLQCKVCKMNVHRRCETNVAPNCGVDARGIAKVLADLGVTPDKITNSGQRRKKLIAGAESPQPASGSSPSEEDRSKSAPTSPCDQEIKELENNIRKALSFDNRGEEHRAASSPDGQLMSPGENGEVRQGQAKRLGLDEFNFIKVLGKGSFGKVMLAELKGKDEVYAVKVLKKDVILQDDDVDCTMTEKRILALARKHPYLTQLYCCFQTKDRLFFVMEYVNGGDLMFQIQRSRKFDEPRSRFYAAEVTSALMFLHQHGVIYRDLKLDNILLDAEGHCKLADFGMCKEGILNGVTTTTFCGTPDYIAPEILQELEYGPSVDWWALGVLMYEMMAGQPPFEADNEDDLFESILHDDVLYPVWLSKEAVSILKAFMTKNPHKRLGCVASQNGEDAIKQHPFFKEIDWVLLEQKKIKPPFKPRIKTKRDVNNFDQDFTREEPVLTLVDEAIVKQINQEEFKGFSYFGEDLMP
The protocol: as §1

Assay [3] deals with T3, EPHA2 (Homo sapiens, UniProt P29317).
T3 construct: purchased Invitrogen (Life Technologies) SelectScreen Z'-LYTE
Here is the method: as §1

Assay [4] deals with T4, TEK (Tie2) (Homo sapiens, UniProt Q02763).
T4 construct: purchased Invitrogen (Life Technologies) SelectScreen Z'-LYTE
The protocol: as §1

Assay [5] addresses T5, BTK (Homo sapiens, UniProt Q06187).
T5 construct: purchased Invitrogen (Life Technologies) SelectScreen Z'-LYTE
The protocol:
as §1

Assay [6] addresses T6, MAPK10 (JNK3) (Homo sapiens, UniProt P53779).
T6 construct: purchased Invitrogen (Life Technologies) SelectScreen Z'-LYTE
Here is the method: as §1

For assay [7], the target named is T7, SYK (Homo sapiens, UniProt P43405).
T7 construct: purchased Invitrogen (Life Technologies) SelectScreen Z'-LYTE
The protocol: as §1

In assay [8] the target is T8, RAF1 (cRAF) Y340D Y341D (Homo sapiens, UniProt P04049, Y340D/Y341D).
T8 construct: purchased Invitrogen (Life Technologies) SelectScreen Z'-LYTE
Here is the method: as §1

Assay [9] deals with T9, CDK1/cyclin B (Homo sapiens, UniProt P06493).
T9 construct: purchased Invitrogen (Life Technologies) SelectScreen Z'-LYTE
The protocol:
as §1

Assay [10] concerns the target T10, ABL1 (Homo sapiens, UniProt P00519).
T10 construct: purchased Invitrogen (Life Technologies) SelectScreen Z'-LYTE
Here is the method: as §1

The target of assay [11] is T11, FRAP1 (mTOR) (Homo sapiens, UniProt P42345).
T11 construct: purchased Invitrogen (Life Technologies) SelectScreen Z'-LYTE
Here is the method:
as §1

The record followed here is publication PMC4385830, “Group I Paks as therapeutic targets in NF2-deficient meningioma” (Oncotarget, 2015).

T10 sequence (P00519 whole entry): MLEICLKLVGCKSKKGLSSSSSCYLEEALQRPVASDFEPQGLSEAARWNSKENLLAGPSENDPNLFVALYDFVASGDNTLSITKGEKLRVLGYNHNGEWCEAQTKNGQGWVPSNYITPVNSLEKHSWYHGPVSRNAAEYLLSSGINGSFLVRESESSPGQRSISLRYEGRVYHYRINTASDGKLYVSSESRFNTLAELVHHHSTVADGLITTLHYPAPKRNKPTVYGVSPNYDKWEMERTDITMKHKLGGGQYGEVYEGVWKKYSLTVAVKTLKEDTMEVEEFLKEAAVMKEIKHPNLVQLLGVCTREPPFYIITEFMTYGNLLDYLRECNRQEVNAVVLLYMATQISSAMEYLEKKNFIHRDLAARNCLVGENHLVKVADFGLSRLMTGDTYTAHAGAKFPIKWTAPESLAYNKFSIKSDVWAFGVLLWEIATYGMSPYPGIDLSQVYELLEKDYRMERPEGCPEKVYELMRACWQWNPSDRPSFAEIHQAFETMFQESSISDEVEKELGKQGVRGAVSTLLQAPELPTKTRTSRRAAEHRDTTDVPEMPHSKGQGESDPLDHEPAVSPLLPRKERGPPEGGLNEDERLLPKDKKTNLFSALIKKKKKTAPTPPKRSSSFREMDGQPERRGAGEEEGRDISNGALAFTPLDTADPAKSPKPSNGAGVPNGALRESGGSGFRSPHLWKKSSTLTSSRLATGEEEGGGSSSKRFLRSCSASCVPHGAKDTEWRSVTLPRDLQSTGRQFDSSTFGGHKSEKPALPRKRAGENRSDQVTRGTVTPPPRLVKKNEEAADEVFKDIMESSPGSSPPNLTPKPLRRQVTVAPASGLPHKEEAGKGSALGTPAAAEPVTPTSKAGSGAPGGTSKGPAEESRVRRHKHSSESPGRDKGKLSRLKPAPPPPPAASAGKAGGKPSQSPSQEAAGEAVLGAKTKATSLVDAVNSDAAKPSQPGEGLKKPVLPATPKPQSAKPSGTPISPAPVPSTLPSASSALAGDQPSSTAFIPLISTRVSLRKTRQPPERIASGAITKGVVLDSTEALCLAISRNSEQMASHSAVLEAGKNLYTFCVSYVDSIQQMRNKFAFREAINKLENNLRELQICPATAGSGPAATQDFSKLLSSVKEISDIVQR
T3 sequence (P29317 24-976): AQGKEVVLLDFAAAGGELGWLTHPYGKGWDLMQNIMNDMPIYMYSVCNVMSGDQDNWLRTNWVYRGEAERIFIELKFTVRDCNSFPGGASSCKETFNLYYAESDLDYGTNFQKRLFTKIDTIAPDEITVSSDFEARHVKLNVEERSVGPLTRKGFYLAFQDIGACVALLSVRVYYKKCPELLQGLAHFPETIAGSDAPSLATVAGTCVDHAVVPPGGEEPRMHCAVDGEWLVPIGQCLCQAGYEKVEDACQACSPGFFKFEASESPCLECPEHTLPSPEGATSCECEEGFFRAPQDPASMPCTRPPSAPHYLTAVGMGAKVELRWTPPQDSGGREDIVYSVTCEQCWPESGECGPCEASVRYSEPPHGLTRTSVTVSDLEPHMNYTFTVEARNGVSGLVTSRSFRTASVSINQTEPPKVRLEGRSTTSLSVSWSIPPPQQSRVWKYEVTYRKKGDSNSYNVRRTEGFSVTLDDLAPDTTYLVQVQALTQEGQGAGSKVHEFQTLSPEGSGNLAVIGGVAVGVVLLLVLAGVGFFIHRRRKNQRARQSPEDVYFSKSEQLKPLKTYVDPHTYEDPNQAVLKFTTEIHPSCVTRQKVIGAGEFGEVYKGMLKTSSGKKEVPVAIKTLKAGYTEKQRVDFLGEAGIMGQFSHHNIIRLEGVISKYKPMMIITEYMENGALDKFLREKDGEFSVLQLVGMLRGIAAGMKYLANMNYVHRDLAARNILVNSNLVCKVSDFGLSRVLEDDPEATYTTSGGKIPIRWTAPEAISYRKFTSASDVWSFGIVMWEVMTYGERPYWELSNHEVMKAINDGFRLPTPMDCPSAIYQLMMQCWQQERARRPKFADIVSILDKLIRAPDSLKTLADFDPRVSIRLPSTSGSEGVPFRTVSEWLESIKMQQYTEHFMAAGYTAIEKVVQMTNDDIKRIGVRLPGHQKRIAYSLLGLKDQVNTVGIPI
T6 sequence (P53779 whole entry): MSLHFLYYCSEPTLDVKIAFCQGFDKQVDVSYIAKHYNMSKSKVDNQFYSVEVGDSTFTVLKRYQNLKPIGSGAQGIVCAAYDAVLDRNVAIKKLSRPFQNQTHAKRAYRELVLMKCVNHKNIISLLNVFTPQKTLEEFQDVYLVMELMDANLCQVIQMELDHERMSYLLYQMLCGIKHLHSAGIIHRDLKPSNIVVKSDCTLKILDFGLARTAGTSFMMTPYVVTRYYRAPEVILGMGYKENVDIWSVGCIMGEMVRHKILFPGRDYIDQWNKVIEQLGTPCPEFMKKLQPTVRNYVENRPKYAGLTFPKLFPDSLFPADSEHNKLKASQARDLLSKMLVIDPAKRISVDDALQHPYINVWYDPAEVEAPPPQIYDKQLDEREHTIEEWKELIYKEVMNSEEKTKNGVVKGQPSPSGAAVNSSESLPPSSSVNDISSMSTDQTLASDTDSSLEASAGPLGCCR
T4 sequence (Q02763 23-1124): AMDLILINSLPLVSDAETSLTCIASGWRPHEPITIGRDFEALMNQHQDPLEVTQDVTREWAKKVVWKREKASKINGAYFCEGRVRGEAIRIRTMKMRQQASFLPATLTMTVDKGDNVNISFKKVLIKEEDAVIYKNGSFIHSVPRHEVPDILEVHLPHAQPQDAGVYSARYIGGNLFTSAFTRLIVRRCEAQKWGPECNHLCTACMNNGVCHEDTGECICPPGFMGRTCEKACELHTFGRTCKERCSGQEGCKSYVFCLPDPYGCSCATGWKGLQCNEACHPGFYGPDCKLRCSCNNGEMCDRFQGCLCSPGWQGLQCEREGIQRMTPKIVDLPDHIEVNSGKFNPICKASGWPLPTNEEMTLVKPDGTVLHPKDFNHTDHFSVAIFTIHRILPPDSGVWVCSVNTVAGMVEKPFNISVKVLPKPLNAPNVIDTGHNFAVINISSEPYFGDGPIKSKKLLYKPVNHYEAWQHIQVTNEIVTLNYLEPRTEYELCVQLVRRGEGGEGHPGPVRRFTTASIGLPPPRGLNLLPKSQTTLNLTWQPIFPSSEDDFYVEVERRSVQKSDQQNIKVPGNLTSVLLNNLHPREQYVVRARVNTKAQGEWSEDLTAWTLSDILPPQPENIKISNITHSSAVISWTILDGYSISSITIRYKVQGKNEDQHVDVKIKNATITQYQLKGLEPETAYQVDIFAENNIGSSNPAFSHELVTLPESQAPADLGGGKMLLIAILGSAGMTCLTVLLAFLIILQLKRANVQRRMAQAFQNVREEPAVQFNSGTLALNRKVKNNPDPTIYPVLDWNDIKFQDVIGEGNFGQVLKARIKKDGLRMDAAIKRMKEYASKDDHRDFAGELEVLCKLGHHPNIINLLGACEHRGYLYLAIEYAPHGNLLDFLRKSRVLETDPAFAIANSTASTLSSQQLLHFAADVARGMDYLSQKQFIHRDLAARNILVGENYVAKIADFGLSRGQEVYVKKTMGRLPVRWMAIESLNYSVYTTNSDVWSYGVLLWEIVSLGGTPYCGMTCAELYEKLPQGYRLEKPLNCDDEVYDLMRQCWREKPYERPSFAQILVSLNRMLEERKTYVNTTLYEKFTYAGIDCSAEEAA
T5 sequence (Q06187 whole entry): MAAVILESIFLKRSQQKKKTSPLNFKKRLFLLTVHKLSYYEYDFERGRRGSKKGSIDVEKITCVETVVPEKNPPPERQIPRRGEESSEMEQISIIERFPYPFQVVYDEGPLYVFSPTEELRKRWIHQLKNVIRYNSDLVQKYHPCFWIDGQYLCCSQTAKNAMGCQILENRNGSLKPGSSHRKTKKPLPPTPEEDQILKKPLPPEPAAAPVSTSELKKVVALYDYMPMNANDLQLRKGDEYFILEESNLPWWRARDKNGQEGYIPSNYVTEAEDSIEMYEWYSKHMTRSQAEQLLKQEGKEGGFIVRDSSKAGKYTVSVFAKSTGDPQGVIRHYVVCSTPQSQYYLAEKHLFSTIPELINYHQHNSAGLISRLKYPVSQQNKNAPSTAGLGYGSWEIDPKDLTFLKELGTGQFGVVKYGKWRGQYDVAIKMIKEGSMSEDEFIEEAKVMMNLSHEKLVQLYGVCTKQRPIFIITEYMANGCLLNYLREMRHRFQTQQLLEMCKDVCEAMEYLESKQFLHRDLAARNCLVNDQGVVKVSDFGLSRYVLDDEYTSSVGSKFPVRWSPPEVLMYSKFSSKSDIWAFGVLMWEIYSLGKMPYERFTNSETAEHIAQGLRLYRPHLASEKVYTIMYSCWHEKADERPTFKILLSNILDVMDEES
T9 sequence (P06493 whole entry): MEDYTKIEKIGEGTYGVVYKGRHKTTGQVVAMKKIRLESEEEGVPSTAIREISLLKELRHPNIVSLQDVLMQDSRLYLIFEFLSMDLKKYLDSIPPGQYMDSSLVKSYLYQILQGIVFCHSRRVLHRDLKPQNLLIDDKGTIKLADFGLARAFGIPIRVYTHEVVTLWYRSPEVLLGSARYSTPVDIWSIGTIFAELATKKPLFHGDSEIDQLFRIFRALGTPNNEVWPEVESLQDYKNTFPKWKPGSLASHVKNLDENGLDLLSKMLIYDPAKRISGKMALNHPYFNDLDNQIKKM
T9 sequence (P14635 whole entry partner): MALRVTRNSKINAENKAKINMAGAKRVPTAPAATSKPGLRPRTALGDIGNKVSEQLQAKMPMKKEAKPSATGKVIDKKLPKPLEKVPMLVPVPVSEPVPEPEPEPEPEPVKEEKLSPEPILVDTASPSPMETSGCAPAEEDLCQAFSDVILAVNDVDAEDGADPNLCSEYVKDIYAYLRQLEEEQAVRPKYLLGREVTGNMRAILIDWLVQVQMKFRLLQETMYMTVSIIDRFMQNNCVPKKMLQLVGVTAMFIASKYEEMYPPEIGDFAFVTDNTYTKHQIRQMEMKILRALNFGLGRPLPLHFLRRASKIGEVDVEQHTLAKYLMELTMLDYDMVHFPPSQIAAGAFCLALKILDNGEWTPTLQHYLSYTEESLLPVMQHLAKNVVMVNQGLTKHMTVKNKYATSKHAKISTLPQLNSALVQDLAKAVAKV

`CCn1c(=O)c(-c2ccc(-c3noc(C)n3)cc2Cl)cc2cnc(Nc3ccc(C4CCN(C)CC4)cc3)nc21` [Frax716]: the “% inhibition of activity” value is 3% in assay [1]; 14% in assay [2]; 68% in [3]; 98% in [4]; 87% in assay [5]; 12% in assay [6]. Besides, the “% inhibition of activity” value in assay [7] came to 21%; in [8], 74%; in [9], 3%; in assay [10], 93%; in assay [11], 1%.

On to `CCn1c(=O)c(-c2ccc(-c3cncc(C)n3)cc2Cl)cc2cnc(NCCC3CCN(C)CC3)nc21` [Frax1036], for which the “% inhibition of activity” value in assay [1] is 0%; in assay [2] it was 25%; in assay [3] it was 18%; in assay [4], 2%; in assay [5], 5%; in [6], 45%. Moreover, the “% inhibition of activity” value in [7] is listed as 4%; in assay [8], 11%; in assay [9] it was 6%; in [10], 18%; in [11], 0%.

Take `Cc1nc(Nc2[nH]nc3c2CN(C(=O)N[C@H](CN(C)C)c2ccccc2)C3(C)C)c2sccc2n1` [PF3758309, reference compound]: the “% inhibition of activity” value is 10% in [1]; 62% in [2]; 18% in [3]; 0% in assay [4]; 74% in [5]; 5% in assay [6]. Also, the “% inhibition of activity” value is on record as 32% in assay [7]; 26% in [8]; 12% in assay [9]; 62% in [10]; 0% in assay [11].
